Assay results reported in patent US7115619B2, “N8, N13 -disubstituted quino[4,3,2-kl]acridinium salts as therapeutic agents” (Cancer Research Technology Limited, priority 2000, dated 2006).
Structures can show the parent of a compound that is named as a salt.

Columns and labels:
[1] = molecular target: T1, telomerase (extracts from A2780 human ovarian carcinoma cells) (Homo sapiens, UniProt O14746); assay: Modified telomeric repeat amplification protocol (TRAP) assay, cell-free; format: biochemical; conditions: A2780 cell extract, agent up to 50 μM, 20 min, read-out: telIC50
T1 construct: extracts from exponentially growing A2780 human ovarian carcinoma cells
Protocol: The ability of compounds to inhibit telomerase in a cell-free assay was assessed with a modified TRAP assay using extracts from exponentially growing A2780 human ovarian carcinoma cells. The TRAP assay was performed in 2 steps: (a) telomerase-mediated extension of the forward primer (TS: 5′-AATCCGTCGAGCAGAGTT, Oswel Ltd., Southampton, UK) contained in a 40 μL reaction mix comprising TRAP buffer (20 mM Tris-HCl (pH 8.3), 68 mM KCl, 1.5 mM MgCl2, 1 mM EGTA, 0.05% v/v Tween 20), 0.05 μg bovine serum albumin, 50 μM of each deoxynucleotide triphosphate, 0.1 μg TS primer, and 3 μCi of [α-^32P]dCTP (Amersham plc, UK). Protein (0.04 μg) was then incubated with the reaction mix±agent (acid addition and quaternary dimethiodide salts) at final concentrations of up to 50 μM for 20 min at […]. A lysis buffer (no protein) control, heat-inactivated protein control, and 50% protein (0.02 μg) control were included in each assay; and (b) while heating at […]. in a PCR block of a thermal cycler (Hybaid, UK) for 5 min to inactivate telomerase activity, 0.1 μg of reverse CX primer (3′-[…]-5′) and 2 Units of Taq DNA polymerase (“red hot”, Advanced Biotechnologies) were added. A 3-step PCR was then performed: 94° C. for 30 s, 50° C. for 30 s, and […]. for 1 min for 31 cycles. Telomerase-extended PCR products in the presence or absence of compounds were then determined either by electrophoretic separation using 8% w/w acrylamide denaturing gels and analysis by phosphorimaging or autoradiography, or by harvesting on Whatman filters (25 mm glass microfibre) and analysis by liquid scintillation counting.

[2] = Growth inhibition, sulforhodamine B (SRB) assay, A2780; format: cell-based; conditions: human, A2780 ovarian carcinoma cells, 96 hr incubation, read-out: Cytotoxicity IC50 A2780
Protocol: (§1) Growth inhibition was measured in the following cells lines using the sulforhodamine B (SRB) assay: • A2780: human ovarian carcinoma cell line. • CH1: human ovarian carcinoma cell line. • SKOV-3: human ovarian carcinoma cell line. • A431: human vulval carcinoma cells (short telomeres). • GM847: carcinoma cell line immortalised by ALT pathway.
(§2) Briefly, between 3000 and 6000 cells were seeded into the wells of 96-well microtiter plates and allowed to attach overnight. Test compounds (salts) were dissolved at 500 μM in water and immediately added to wells in quadruplicate at final concentrations of 0.05, 0.25, 1, 5 and 25 μM. Following an incubation period of 96 hr, remaining cells were fixed with ice-cold 10% w/v trichloroacetic acid (30 min) and stained with 0.4% SRB in 1% v/v acetic acid (15 min). Mean absorbance at 540 nm for each drug concentration was expressed as a percentage of the control untreated well absorbance, and IC50 values (concentration required to inhibit cell growth by 50%) were determined for each agent.

[3] = Growth inhibition, sulforhodamine B (SRB) assay, CH1; format: cell-based; conditions: human, CH1 ovarian carcinoma cells, 96 hr incubation, read-out: Cytotoxicity IC50 CH1
Protocol: as §1, §2

[4] = Growth inhibition, sulforhodamine B (SRB) assay, SKOV-3; format: cell-based; conditions: human, SKOV-3 ovarian carcinoma cells, 96 hr incubation, read-out: Cytotoxicity IC50 SKOV-3
Protocol: as §1, §2

[5] = Growth inhibition, sulforhodamine B (SRB) assay, A431; format: cell-based; conditions: human, A431 vulval carcinoma cells (short telomeres), 96 hr incubation, read-out: Cytotoxicity IC50 A431
Protocol: as §2, with “Growth inhibition was measured in the following cells lines using the sulforhodamine B (SRB) assay: • A2780: human ovarian carcinoma cell line. • CH1: human ovarian carcinoma cell line. • SKOV-3: human ovarian carcinoma cell line. • A431: human vulval carcinoma cells (short telomeres). • GM847: carcinoma cell line immortalised by ALT pathway. Briefly,” for “Briefly,”

[6] = Growth inhibition, sulforhodamine B (SRB) assay, GM847; format: cell-based; conditions: human, GM847 cells (immortalised by ALT pathway), 96 hr incubation, read-out: Cytotoxicity IC50 GM847
Protocol: as §2, with “Growth inhibition was measured in the following cells lines using the sulforhodamine B (SRB) assay: • A2780: human ovarian carcinoma cell line. • CH1: human ovarian carcinoma cell line. • SKOV-3: human ovarian carcinoma cell line. • A431: human vulval carcinoma cells (short telomeres). • GM847: carcinoma cell line immortalised by ALT pathway. Briefly,” for “Briefly,”

T1 sequence (O14746 whole entry): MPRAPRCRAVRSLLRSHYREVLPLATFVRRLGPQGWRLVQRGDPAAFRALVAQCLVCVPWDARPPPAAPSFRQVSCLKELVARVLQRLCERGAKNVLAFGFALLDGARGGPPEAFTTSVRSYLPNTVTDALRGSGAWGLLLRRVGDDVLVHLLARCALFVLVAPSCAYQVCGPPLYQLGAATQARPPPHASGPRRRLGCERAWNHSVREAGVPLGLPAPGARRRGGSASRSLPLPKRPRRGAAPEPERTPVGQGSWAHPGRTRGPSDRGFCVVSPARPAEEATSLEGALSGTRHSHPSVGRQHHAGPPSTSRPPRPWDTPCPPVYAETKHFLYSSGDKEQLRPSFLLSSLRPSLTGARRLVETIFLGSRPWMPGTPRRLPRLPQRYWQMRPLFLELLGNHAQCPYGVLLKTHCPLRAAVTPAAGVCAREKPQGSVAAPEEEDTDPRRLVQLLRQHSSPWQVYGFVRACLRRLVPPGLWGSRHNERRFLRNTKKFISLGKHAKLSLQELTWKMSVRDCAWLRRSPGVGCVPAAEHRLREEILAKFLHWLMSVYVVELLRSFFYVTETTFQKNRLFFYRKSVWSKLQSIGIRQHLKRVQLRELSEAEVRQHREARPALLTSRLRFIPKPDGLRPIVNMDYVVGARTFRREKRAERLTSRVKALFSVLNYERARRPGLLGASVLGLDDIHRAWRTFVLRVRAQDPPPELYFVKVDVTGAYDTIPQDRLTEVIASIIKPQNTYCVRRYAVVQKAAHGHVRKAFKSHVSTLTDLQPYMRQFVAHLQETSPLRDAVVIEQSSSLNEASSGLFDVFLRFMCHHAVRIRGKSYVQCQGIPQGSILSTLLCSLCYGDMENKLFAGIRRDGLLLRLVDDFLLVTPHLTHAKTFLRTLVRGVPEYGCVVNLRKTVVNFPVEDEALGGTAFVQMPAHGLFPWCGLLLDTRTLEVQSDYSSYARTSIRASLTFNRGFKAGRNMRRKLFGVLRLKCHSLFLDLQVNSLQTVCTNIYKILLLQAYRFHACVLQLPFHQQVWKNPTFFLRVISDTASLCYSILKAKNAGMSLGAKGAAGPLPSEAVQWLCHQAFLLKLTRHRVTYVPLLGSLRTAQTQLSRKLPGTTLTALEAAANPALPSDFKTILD

melting point	IC50 [1]	Compound	IC50 at 96 h [2]	IC50 at 96 h [3]	IC50 at 96 h [4]	IC50 at 96 h [5]	IC50 at 96 h [6]
225 to 227 °C		CN1c2ccccc2-c2c3c1cccc3c1cc(Cl)ccc1[n+]2C (as salt: iodide) [RHPS06, 3-Chloro-8,13-dimethyl-8H-quino[4,3,2-kl]acridinium iodide]					
200 to 202 °C		COC(=O)/C=C/c1ccc2c(c1)c1cccc3c1c([n+]2C)-c1ccccc1N3C (as salt: iodide) [RHPS15, (E)-3-(8,13-Dimethyl-8H-quino[4,3,2-kl]acridinium-3-yl)-acrylic acid methyl ester iodide]					
	1.55 µM	CN1c2ccccc2-c2c3c1cccc3c1ccccc1[n+]2C [RHPS05, 8,13-Dimethyl-8H-quino[4,3,2-kl]acridinium iodide]	1.6 µM	1.1 µM	18 µM		
	0.26 µM	CN1c2ccccc2-c2c3c1cccc3c1cc(Cl)ccc1[n+]2C [RHPS06, 3-Chloro-8,13-dimethyl-8H-quino[4,3,2-kl]acridinium iodide]	1.1 µM	0.5 µM	12.5 µM		
	3.02 µM	COC(=O)CCc1ccc2c(c1)c1cccc3c1c([n+]2C)-c1ccccc1N3C [RHPS09, 3-(8,13-Dimethyl-8H-quino[4,3,2-kl]acridinium-3-yl)-propionic acid methyl ester iodide]	> 25 µM	11.5 µM	> 25 µM		
	0.19 µM	COC(=O)/C=C/c1ccc2c(c1)c1cccc3c1c([n+]2C)-c1ccccc1N3C [RHPS15, (E)-3-(8,13-Dimethyl-8H-quino[4,3,2-kl]acridinium-3-yl)-acrylic acid methyl ester iodide]		2.2 µM	19 µM	3.2 µM	4.5 µM

More lines, now with the values behind:

Compound	melting point	IC50 [1]	IC50 at 96 h [2]	IC50 at 96 h [3]	IC50 at 96 h [4]	IC50 at 96 h [5]	IC50 at 96 h [6]
Cc1cc2c3c([n+](C)c4ccc(Cl)cc4c3c1)-c1cc(Cl)ccc1N2C (as salt: sulfate) [RHPS02, 3,11-Dichloro-6,8,13-trimethyl-8H-quino[4,3,2-kl]acridinium methylsulfate]	250 to 252 °C						
Cc1cc2c3c([n+](C)c4ccccc4c3c1)-c1ccccc1N2C (as salt: sulphate) [RHPS01, 6,8,13-Trimethyl-8H-quino[4,3,2-kl]acridinium methyl sulphate]	190 to 192 °C						
Cc1ccc2c(c1)-c1c3c(cc(C)cc3c3cc(C)ccc3[n+]1C)N2C (as salt: sulphate) [RHPS03, 3,6,8,11,13-Pentamethyl-8H-quino[4,3,2-kl]acridinium methyl sulphate]	240 to 242 °C						
Cc1cc2c3c([n+](C)c4ccccc4c3c1)-c1ccccc1N2C [RHPS01, 6,8,13-Trimethyl-8H-quino[4,3,2-kl]acridinium methyl sulphate]		0.74 µM	0.9 µM	0.37 µM	3.6 µM		
Cc1cc2c3c([n+](C)c4ccc(Cl)cc4c3c1)-c1cc(Cl)ccc1N2C [RHPS02, 3,11-Dichloro-6,8,13-trimethyl-8H-quino[4,3,2-kl]acridinium methylsulfate]		0.24 µM	1.3 µM	1.4 µM	9.3 µM		
Cc1ccc2c(c1)-c1c3c(cc(C)cc3c3cc(C)ccc3[n+]1C)N2C [RHPS03, 3,6,8,11,13-Pentamethyl-8H-quino[4,3,2-kl]acridinium methyl sulphate]		0.18 µM	0.33 µM	0.29 µM	0.75 µM		
Cc1cc2c3c([n+](C)c4ccc(F)cc4c3c1)-c1cc(F)ccc1N2C [RHPS04, 3,11-Difluoro-6,8,13-trimethyl-8H-quino[4,3,2-kl]acridinium methyl sulphate]		0.31 µM	1.1 µM	0.5 µM	23 µM		
CN1c2cc(Cl)ccc2-c2c3c1cccc3c1cc(Cl)ccc1[n+]2C [RHPS07, 3,10-Dichloro-8,13-dimethyl-8H-quino[4,3,2-kl]acridinium iodide]		0.94 µM	14.5 µM	3.8 µM	> 25 µM		
COc1cc2c3c([n+](C)c4ccccc4c3c1)-c1ccccc1N2C [RHPS08, 8,13-Dimethyl-6-methoxy-8H-quino[4,3,2-kl]acridinium iodide]		0.47 µM	0.62 µM	0.13 µM	3.6 µM		
COc1cc2c3c([n+](C)c4ccc(Cl)cc4c3c1)-c1ccccc1N2C [RHPS10, 3-Chloro-8,13-dimethyl-6-methoxy-8H-quino[4,3,2-kl]acridinium iodide]		0.24 µM		1.1 µM	6.3 µM	3.2 µM	0.8 µM
CC(=O)Oc1cc2c3c([n+](C)c4ccccc4c3c1)-c1ccccc1N2C [RHPS11, 6-Acetoxy-8,13-dimethyl-8H-quino[4,3,2-kl]acridinium iodide]		1.7 µM		1.6 µM	3.5 µM	1.7 µM	17.7 µM
COc1cc2c3c([n+](C)c4ccccc4c3c1)-c1ccc(Cl)cc1N2C [RHPS12, 10-Chloro-8,13-dimethyl-6-methoxy-8H-quino[4,3,2-kl]acridinium iodide]		0.28 µM		0.3 µM	10 µM	1 µM	0.4 µM
COC(=O)Oc1cc2c3c([n+](C)c4ccccc4c3c1)-c1ccccc1N2C [RHPS13, 6-Methoxycarbonyloxy-8,13-dimethyl-8H-quino[4,3,2-kl]acridinium iodide]		0.57 µM		0.2 µM	1.5 µM	0.4 µM	0.5 µM
CN1c2ccccc2-c2c3c1cccc3c1cc(/C=C/C(=O)N3CCOCC3)ccc1[n+]2C [RHPS16, 8,13-Dimethyl-(E)-3-(3-morpholin-4-yl-3-oxo-propenyl)-8H-quino[4,3,2-kl]acridinium iodide]		0.37 µM		17.8 µM	> 25 µM	12.5 µM	> 25 µM
